# In patent publication US10710978B2, “STK4 inhibitors for treatment of hematologic malignancies” (Dana-Farber Cancer Institute, Inc., priority 2015, dated 2020):
# Tests used:
# Assay in all cases: Ambit KINOSCAN assay
# Assay type in all cases: binding
# MINK = MINK (Homo sapiens (Human), UniProt Q8N4C8); conditions: read-out: percent control (%) at 1 uM
# Protocol: (§1) Kinase Selectivity Studies
# (§2) To directly test the kinase selectivity of a compound of the present application over other human protein kinases, the compounds were tested in an Ambit KINOSCAN assay. Ambit KINOSCAN assay is an ATP site dependent competition assay. T7 kinase-tagged phage strains were grown in parallel in 24- or 96-well blocks in an E. coli host derived from the BL21 strain. E. Coli were grown to log phase and infected with T7 phage from a frozen stock and incubated with shaking at about 32° C. until lysis (˜90 min). The lysates were centrifuged (6,000 g) and filtered ([…]) to remove cell debris. […] The liganded beads were blocked with excess biotin and washed with blocking buffer (Seablock (Pierce), 1% BSA, 0.05% Tween 20, 1 mM DTT) to remove unbound ligand and to reduce non-specific phage binding. Binding reactions were assembled by combining phage lysates, liganded affinity beads, and test compounds (i.e., compounds of the present application) in 1× binding buffer (20% SeaBlock, 0.17×PBS, 0.05% Tween […]). Test compounds were prepared 1000× stocks in DMSO and rapidly diluted into the aqueous environment (0.1% DMSO final). DMSO (0.1%) was used as a control. All reactions were carried out in polystyrene 96-well plates that had been pre-treated with blocking buffer in a final volume of 0.1 ml. […] The phage titer in the eluates was measured by standard plaque assays or quantitative PCR. Binding data were fit to the equation […]), where L is the lower baseline, H is the upper baseline, Kd(test) is the biding constant for the interaction between the test compound and the kinase, and [test] is the free test compound concentration. Binding constants are measured in duplicate on the same day of testing. For more details on the Ambit KINOSCAN assay see Fabian, M. A., et al. “A Small Molecule-Kinase Interaction Map for Clinical Kinase Inhibitors” Nat. Biotechol. 23(3), 2005, 329-336. (Also see Davis, M. I., et al. “Comprehensive analysis of kinase inhibitor selectivity.” Nat. Biotechnol. 29(11), 2011, 1046-1051)
# CSNK1A1 = CSNK1A1 (Homo sapiens (Human), UniProt P48729); conditions: read-out: percent control (%) at 1 uM
# Protocol: as §1, §2
# CIT = CIT (Homo sapiens (Human), UniProt O14578); conditions: read-out: percent control (%) at 1 uM
# Protocol: as §1, §2
# CLK2 = CLK2 (Homo sapiens (Human), UniProt P49760); conditions: read-out: percent control (%) at 1 uM
# Protocol: as §1, §2
# BMPR1B = BMPR1B (Homo sapiens (Human), UniProt O00238); conditions: read-out: percent control (%) at 1 uM
# Protocol: as §1, §2
# CSNK1G3 = CSNK1G3 (Homo sapiens (Human), UniProt Q9Y6M4)
# Protocol: as §1, §2
# DCAMKL3 = DCAMKL3 (Homo sapiens (Human), UniProt Q9C098); conditions: read-out: percent control (%) at 1 uM
# Protocol: as §1, §2
# CSNK1A1L = CSNK1A1L (Homo sapiens (Human), UniProt Q8N752); conditions: read-out: percent control (%) at 1 uM
# Protocol: as §1, §2
# GSK3A = GSK3A (Homo sapiens (Human), UniProt P49840); conditions: read-out: percent control (%) at 1 uM
# Protocol: as §1, §2
# CSNK1G1 = CSNK1G1 (Homo sapiens (Human), UniProt Q9HCP0); conditions: read-out: percent control (%) at 1 uM
# Protocol: as §1, §2
# CLK4 = CLK4 (Homo sapiens (Human), UniProt Q9HAZ1); conditions: read-out: percent control (%) at 1 uM
# Protocol: as §1, §2
# DRAK1 = DRAK1 (Homo sapiens (Human), UniProt Q9UEE5); conditions: read-out: percent control (%) at 1 uM
# Protocol: as §1, §2
# CSNK1E = CSNK1E (Homo sapiens (Human), UniProt P49674)
# Protocol: as §1, §2
# MST2 = MST2 (Homo sapiens (Human), UniProt Q13188)
# Protocol: as §1, §2
# VRK2 = VRK2 (Homo sapiens (Human), UniProt Q86Y07); conditions: read-out: percent control (%) at 1 uM
# Protocol: as §1, §2
# DYRK2 = DYRK2 (Homo sapiens (Human), UniProt Q92630); conditions: read-out: percent control (%) at 1 uM
# Protocol: as §1, §2
# DYRK1A = DYRK1A (Homo sapiens (Human), UniProt Q13627); conditions: read-out: percent control (%) at 1 uM
# Protocol: as §1, §2
# CLK1 = CLK1 (Homo sapiens (Human), UniProt P49759); conditions: read-out: percent control (%) at 1 uM
# Protocol: as §1, §2
# IRAK1 = IRAK1 (Homo sapiens (Human), UniProt P51617)
# Protocol: as §1, §2
# CSNK1G2 = CSNK1G2 (Homo sapiens (Human), UniProt P78368); conditions: read-out: percent control (%) at 1 uM
# Protocol: as §1, §2
# DYRK1B = DYRK1B (Homo sapiens (Human), UniProt Q9Y463); conditions: read-out: percent control (%) at 1 uM
# Protocol: as §1, §2
# [1] = read-out: percent control (%) at 1 uM
# Sequence of MST2 (Q13188 whole entry): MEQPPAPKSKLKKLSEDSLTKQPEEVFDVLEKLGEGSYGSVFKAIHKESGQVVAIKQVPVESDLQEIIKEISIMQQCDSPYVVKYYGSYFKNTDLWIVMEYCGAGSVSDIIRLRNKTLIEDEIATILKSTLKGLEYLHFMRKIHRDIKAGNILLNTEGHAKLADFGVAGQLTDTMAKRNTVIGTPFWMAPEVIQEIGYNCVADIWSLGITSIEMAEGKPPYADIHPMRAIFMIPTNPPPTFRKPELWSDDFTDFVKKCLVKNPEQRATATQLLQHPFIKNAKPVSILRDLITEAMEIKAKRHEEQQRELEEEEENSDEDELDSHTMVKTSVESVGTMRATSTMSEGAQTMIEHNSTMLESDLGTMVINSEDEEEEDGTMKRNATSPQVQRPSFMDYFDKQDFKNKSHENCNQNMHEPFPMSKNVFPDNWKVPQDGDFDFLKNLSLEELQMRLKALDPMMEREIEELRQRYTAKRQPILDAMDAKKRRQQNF
# Sequence of CSNK1E (P49674 whole entry): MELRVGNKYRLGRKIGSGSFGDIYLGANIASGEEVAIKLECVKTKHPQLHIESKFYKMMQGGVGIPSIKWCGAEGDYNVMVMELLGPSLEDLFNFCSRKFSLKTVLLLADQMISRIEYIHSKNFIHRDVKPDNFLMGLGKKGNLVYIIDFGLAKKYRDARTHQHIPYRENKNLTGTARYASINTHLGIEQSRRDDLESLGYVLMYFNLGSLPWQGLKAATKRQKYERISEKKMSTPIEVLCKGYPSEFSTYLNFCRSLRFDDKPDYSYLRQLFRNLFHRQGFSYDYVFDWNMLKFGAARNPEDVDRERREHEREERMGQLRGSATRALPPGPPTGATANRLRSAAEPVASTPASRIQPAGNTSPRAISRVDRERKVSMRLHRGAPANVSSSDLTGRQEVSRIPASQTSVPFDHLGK
# Sequence of IRAK1 (P51617 whole entry): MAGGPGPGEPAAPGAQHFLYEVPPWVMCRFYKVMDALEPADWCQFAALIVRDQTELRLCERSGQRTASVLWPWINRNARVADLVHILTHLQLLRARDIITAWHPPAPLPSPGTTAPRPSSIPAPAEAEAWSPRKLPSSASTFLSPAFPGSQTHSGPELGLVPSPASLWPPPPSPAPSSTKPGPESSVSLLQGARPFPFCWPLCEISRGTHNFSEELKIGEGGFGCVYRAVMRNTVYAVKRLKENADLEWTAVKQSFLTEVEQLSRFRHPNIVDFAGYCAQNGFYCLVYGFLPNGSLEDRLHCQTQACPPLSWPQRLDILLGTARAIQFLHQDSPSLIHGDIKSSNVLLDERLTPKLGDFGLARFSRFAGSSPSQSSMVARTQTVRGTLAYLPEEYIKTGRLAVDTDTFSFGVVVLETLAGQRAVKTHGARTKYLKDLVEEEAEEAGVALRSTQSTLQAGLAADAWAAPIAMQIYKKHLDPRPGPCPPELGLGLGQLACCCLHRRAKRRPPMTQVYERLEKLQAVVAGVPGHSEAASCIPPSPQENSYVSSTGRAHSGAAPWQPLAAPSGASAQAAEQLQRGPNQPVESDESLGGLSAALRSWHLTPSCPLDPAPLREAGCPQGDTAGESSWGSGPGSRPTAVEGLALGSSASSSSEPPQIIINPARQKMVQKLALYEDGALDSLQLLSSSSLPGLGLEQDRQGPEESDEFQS
# Sequence of CSNK1G3 (Q9Y6M4 whole entry): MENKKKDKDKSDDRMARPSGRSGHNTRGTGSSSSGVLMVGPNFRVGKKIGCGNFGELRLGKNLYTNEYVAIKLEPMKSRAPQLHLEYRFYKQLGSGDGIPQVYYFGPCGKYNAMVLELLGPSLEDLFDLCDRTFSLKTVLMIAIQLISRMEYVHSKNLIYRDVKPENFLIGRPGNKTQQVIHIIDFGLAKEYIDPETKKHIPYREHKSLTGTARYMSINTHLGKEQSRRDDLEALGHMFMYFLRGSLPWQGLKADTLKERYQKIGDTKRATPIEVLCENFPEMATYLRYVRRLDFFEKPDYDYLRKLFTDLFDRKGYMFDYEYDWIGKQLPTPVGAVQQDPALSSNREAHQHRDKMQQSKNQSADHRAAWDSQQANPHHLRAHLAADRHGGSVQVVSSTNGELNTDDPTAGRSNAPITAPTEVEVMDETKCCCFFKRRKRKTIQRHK
# Sequence of DYRK2 (Q92630 whole entry): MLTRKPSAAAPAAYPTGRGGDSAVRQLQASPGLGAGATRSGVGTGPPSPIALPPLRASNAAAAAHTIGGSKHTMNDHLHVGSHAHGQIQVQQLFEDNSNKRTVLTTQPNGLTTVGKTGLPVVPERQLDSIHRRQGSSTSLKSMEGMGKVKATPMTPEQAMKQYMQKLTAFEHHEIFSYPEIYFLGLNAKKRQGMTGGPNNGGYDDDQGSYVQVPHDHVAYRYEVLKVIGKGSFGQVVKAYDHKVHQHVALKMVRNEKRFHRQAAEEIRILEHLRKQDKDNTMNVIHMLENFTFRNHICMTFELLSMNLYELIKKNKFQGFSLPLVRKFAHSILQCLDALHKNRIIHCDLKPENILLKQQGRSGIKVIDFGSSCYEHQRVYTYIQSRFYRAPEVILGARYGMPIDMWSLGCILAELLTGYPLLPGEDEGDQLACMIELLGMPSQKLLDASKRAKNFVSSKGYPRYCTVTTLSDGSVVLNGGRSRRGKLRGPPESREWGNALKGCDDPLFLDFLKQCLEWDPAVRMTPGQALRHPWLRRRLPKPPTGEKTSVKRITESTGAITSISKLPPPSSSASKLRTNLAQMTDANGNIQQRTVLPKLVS
# Sequence of DCAMKL3 (Q9C098 whole entry): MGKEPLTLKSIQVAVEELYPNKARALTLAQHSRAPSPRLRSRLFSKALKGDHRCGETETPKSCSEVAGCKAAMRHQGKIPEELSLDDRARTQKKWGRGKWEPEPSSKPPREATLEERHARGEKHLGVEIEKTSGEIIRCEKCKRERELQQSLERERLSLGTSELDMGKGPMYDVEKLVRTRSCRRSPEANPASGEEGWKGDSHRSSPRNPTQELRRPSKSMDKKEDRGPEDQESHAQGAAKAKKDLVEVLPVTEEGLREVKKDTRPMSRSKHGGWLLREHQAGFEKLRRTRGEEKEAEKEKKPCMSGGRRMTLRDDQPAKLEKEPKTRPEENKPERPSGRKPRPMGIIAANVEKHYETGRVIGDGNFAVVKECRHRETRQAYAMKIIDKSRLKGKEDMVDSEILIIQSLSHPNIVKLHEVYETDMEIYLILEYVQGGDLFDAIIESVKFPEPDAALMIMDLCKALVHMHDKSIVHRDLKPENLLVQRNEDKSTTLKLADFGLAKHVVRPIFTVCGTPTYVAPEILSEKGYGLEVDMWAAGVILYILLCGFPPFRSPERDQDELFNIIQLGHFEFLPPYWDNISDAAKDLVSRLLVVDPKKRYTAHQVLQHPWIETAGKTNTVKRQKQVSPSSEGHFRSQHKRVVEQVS
# Sequence of CLK2 (P49760 whole entry): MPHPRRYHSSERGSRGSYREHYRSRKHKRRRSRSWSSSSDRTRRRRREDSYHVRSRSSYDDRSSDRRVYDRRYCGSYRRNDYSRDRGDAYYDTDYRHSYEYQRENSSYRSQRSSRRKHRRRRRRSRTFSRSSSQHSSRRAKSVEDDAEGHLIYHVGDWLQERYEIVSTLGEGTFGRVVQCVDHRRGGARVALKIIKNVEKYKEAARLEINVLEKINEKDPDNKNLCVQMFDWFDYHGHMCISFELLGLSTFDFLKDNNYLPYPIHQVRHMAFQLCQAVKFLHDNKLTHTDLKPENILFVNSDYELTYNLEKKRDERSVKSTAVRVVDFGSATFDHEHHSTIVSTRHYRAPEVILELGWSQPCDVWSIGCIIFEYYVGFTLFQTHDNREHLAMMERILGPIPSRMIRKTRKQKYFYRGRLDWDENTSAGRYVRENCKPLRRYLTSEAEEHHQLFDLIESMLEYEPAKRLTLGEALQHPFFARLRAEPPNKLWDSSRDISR
# Sequence of DYRK1B (Q9Y463 whole entry): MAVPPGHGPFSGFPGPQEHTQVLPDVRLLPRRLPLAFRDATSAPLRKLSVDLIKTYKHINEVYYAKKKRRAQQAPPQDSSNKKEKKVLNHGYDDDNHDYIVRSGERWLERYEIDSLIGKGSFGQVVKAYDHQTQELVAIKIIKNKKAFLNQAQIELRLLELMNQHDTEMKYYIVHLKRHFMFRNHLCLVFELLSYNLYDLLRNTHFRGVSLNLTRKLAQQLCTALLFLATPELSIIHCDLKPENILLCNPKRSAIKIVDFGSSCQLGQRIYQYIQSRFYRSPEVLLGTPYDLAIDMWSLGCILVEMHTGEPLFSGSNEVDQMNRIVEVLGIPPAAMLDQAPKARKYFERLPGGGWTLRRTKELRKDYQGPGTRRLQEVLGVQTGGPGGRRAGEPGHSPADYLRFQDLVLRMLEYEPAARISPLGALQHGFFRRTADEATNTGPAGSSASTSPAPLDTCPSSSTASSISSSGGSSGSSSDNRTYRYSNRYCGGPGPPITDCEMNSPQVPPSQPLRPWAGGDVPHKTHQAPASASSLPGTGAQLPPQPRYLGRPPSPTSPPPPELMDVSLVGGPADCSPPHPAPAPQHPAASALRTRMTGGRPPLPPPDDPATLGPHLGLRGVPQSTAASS
# Sequence of VRK2 (Q86Y07 whole entry): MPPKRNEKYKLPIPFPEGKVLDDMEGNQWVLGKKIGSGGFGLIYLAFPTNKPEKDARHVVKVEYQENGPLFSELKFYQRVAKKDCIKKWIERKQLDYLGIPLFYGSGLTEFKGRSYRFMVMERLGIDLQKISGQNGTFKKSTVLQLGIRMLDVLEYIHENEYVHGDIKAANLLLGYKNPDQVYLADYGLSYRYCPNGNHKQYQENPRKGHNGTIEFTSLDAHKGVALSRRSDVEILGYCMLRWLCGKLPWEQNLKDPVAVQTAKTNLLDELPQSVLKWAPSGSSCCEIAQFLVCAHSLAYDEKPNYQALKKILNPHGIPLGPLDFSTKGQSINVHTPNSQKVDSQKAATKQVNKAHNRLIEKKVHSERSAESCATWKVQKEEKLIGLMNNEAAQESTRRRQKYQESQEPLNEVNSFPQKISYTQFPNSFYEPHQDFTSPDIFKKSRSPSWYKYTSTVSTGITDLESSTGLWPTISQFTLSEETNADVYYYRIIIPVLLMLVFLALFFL
smiles,measurement,setting,value
"Nc1ncc(-c2cc([N+](=O)[O-])ccc2F)cc1-c1ccc2c(c1)CCNC2=O [Compound I-1, 6-(2-amino-5-(2-fluoro-5-nitrophenyl)pyridin-3-yl)-3,4-dihydroisoquinolin-1(2H)-one]",remaining binding at 1 µM,MINK,3.8%
same,remaining binding at 1 µM,CSNK1A1,3.7%
same,remaining binding at 1 µM,CIT,0.05%
same,remaining binding at 1 µM,CLK2,5%
same,remaining binding at 1 µM,BMPR1B,0.75%
same,IC50,"CSNK1G3; Kinase Selectivity Data, CSNK1G3",4.68 nM
same,remaining binding at 1 µM,CSNK1G3; [1],0%
same,remaining binding at 1 µM,DCAMKL3,2.5%
same,remaining binding at 1 µM,CSNK1A1L,1.7%
same,remaining binding at 1 µM,GSK3A,0%
same,remaining binding at 1 µM,CSNK1G1,4.6%
same,remaining binding at 1 µM,CLK4,2.6%
same,remaining binding at 1 µM,DRAK1,0.15%
same,IC50,"CSNK1E; Kinase Selectivity Data, CSNK1E",201 nM
same,remaining binding at 1 µM,CSNK1E; [1],0.1%
same,IC50,"MST2; Kinase Selectivity Data, MST2",42.6 nM
same,remaining binding at 1 µM,MST2; [1],1.2%
same,remaining binding at 1 µM,VRK2,2.4%
same,remaining binding at 1 µM,DYRK2,3%
same,remaining binding at 1 µM,DYRK1A,0%
same,remaining binding at 1 µM,CLK1,1.6%
same,IC50,"IRAK1; Kinase Selectivity Data, IRAK1",110 nM
same,remaining binding at 1 µM,IRAK1; [1],2.8%
same,remaining binding at 1 µM,CSNK1G2,4%
same,remaining binding at 1 µM,DYRK1B,0.75%
